From patent US12234230B2, “Substituted benzyl-triazole compounds for Cbl-b inhibition, and further uses thereof” (Nurix Therapeutics, Inc., priority 2019, dated 2025)
pIC50: −log10 of the molar value. Like-named read-outs stand apart in the source and are kept apart here.

What was measured:
[1] = test system: primary human total T-cells; assay: Primary human total T-cell activation (IL-2 secretion, CD25 surface staining), Biological Example 2; conditions: fold change over baseline; for IL-2 secretion CD3/CD28 0.3 μM / CD25 staining CD3/CD28 0.3 μM: 0.3 μM inhibitor; for IL-2 secretion CD3/CD28 0.3 μM / IL-2 secretion CD3/CD28 1 μM / CD25 staining CD3/CD28 0.3 μM / CD25 staining CD3/CD28 1 μM: anti-CD3 and anti-CD28 co-stimulation; for IL-2 secretion CD3/CD28 1 μM / CD25 staining CD3 1 μM / IL-2 secretion CD3 1 μM / CD25 staining CD3/CD28 1 μM: 1 μM inhibitor; for CD25 staining CD3 1 μM / IL-2 secretion CD3 1 μM / CD25 staining CD3 3 μM / IL-2 secretion CD3 3 μM: anti-CD3 stimulation alone; for CD25 staining CD3 3 μM / IL-2 secretion CD3 3 μM: 3 μM inhibitor
Description: Peripheral blood mononuclear cells (PBMC) were obtained either: 1) by using Ficoll-Paque™ (GE Healthcare) for separation of peripheral blood hematopoietic cells from buffy coats of healthy human donors; or 2) directly from LeukoPak donations. […] The cells were rested overnight at 37° C. 5% CO2. The Cbl-inhibitor was added to 1×10^5 cells per well and the plate was incubated for one hour at 37° C. in 5% CO2 at the concentrations indicated (Table 3) with a final DMSO concentration of <0.1%. For samples stimulated with anti-CD3 antibody and anti-CD28 antibody (anti-CD3/anti-CD28), the Cbl-b inhibitor concentrations tested were 1 μM, and 0.3 μM. For samples stimulated with anti-CD3 antibody alone (anti-CD3), the Cbl-b inhibitor concentrations tested were 3 μM, and 1 μM. […] To prepare plates with plate bound anti-CD3 antibody (OKT3), 96-well round bottom tissue culture plates were coated with 100 μL of anti-CD3 antibody (OKT3) at 10 μg/mL for 4 hours at 37° C. 5% CO2 in phosphate buffered saline (PBS). […] Cells were stimulated for 48 hours prior to harvesting the cell free supernatant and staining the cell population for surface marker assessment by flow cytometry. Supernatants were analyzed for cytokine secretion, including IL-2 by ELISA (R&D Systems, Peprotech or Life Technologies) or Luminex multiplex kits (Procarta Life Technologies) following the manufacturer's protocol. Cells were stained with anti-CD25 antibody (BD Biosciences) to assess levels of surface marker of activation.
Readouts were reported as fold change over baseline. Baseline for this study was the measurement obtained from total human T-cells stimulated with anti-CD3 antibody and with soluble anti-CD28 antibody, wherein the cells were not incubated with a Cbl-b inhibitor (Table 3).

Cbl-b = Cbl-b (Homo sapiens (Human), UniProt Q13191); assay: Cbl-b displacement assay (Cbl-b inhibition assay), Biological Example 1; assay type: binding
Description: The ability of candidate compounds to displace a known inhibitor and thereby inhibit Cbl-b activity was measured by monitoring the interaction of Cbl-b with a fluorophore-labeled probe in the presence of the candidate compound.
Following the one hour incubation, the plates were read for TR-FRET signal at 520/620 nm using an Envision plate reader (Perkin Elmer).

[2] = 0.125 nM Cbl-b final concentration (Low), read-out: Cbl-b activity IC50 (Low)
[3] = read-out: IC50 values in the Cbl-b inhibition assay of Biological Example 1

Cbl-b, sequence (Q13191 36-427): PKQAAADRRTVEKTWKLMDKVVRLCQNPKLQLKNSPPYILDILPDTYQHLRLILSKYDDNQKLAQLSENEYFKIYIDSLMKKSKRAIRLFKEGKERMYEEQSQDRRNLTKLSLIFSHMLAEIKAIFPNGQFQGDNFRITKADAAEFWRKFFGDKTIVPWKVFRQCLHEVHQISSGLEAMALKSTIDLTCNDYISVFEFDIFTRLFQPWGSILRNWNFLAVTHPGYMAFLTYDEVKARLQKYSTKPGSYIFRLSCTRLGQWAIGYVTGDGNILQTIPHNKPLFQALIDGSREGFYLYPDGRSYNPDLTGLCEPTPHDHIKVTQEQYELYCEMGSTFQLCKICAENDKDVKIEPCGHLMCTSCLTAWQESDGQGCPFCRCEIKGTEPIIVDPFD

| Compound | IL-2 secretion CD3/CD28 0.3 μM [1] | IL-2 secretion CD3/CD28 1 μM [1] | CD25 staining CD3 1 μM [1] | IL-2 secretion CD3 1 μM [1] | CD25 staining CD3 3 μM [1] | IL-2 secretion CD3 3 μM [1] | pIC50 (Cbl-b; [2]) | pIC50 (Cbl-b; [3]) | CD25 staining CD3/CD28 0.3 μM [1] | CD25 staining CD3/CD28 1 μM [1] |
| --- | --- | --- | --- | --- | --- | --- | --- | --- | --- | --- |
| C[C@@H]1CN(Cc2cc3c(c(C(F)(F)F)c2)CN(c2cccc(C4(c5nncn5C)COC4)c2)C3=O)CCC1(F)F [Compound 47, 6-[[(3R)-4,4-difluoro-3-methyl-1-piperidyl]methyl]-2-[3-[3-(4-methyl-1,2,4-triazol-3-yl)oxetan-3-yl]phenyl]-4-(trifluoromethyl)isoindolin-1-one] | A (A indicates >35 fold) | A (A indicates >35 fold) | B (B indicates 1.5-2.5 fold) | B (B indicates 0.70-1.1 fold) | B (B indicates 1.5-2.5 fold) | C (C indicates <0.70 fold) | > 8.30 | – | – | – |
| C[C@@H]1CN(Cc2cc3c(c(C(F)(F)F)c2)CN(c2cccc(C4(c5nncn5C)CC(F)(F)C4)c2)C3=O)CCC1(F)F [Compound 52, 2-{3-[3,3-difluoro-1-(4-methyl-1,2,4-triazol-3-yl)cyclobutyl]phenyl}-6-{[(3R)-4,4-difluoro-3-methylpiperidin-1-yl]methyl}-4-(trifluoromethyl)-3H-isoindol-1-one] | A (A indicates >35 fold) | B (B indicates 20-35 fold) | A (A indicates >2.5 fold) | A (A indicates >1.1 fold) | A (A indicates >2.5 fold) | A (A indicates >1.1 fold) | > 8.30 | – | – | – |
| C[C@@H]1CN(Cc2cc3c(c(C(F)(F)F)c2)CN(c2cccc([C@@H](c4nncn4C)C4CCC4)c2)C3=O)CCC1(F)F [Compound 2, 2-(3-((S)-cyclobutyl(4-methyl-4H-1,2,4-triazol-3-yl)methyl)phenyl)-6-(((R)-4,4-difluoro-3-methylpiperidin-1-yl)methyl)-4-(trifluoromethyl)isoindolin-1-one] | A (A indicates >35 fold) | A (A indicates >35 fold) | A (A indicates >2.5 fold) | A (A indicates >1.1 fold) | A (A indicates >2.5 fold) | B (B indicates 0.70-1.1 fold) | < 7.00 | < 7.00 | – | – |
| C[C@@H]1CN(Cc2cc3c(c(C4CC4)n2)CN(c2cccc([C@@H](c4nncn4C)C4CCC4)c2)C3=O)CCC1(F)F [Compound 5, 2-(3-((S)-cyclobutyl(4-methyl-4H-1,2,4-triazol-3-yl)methyl)phenyl)-4-cyclopropyl-6-(((R)-4,4-difluoro-3-methylpiperidin-1-yl)methyl)-2,3-dihydro-1H-pyrrolo[3,4-c]pyridin-1-one] | C (C indicates <20 fold) | C (C indicates <20 fold) | C (C indicates <1.5 fold) | C (C indicates <0.70 fold) | C (C indicates <1.5 fold) | C (C indicates <0.70 fold) | 7.00 to 7.70 | 7.00 to 7.70 | B (B indicates 1.24-1.39 fold) | B (B indicates 1.24-1.39 fold) |
| C[C@@H]1CN(Cc2cc3c(c(C(F)(F)F)c2)CN(c2cccc([C@]4(c5nncn5C)C[C@@H](O)C4)c2)C3=O)CCC1(F)F [Compound 31, 6-(((R)-4,4-difluoro-3-methylpiperidin-1-yl)methyl)-2-(3-((1s,3S)-3-hydroxy-1-(4-methyl-4H-1,2,4-triazol-3-yl)cyclobutyl)phenyl)-4-(trifluoromethyl)isoindolin-1-one] | C (C indicates <20 fold) | C (C indicates <20 fold) | C (C indicates <1.5 fold) | C (C indicates <0.70 fold) | B (B indicates 1.5-2.5 fold) | C (C indicates <0.70 fold) | 7.70 to 8.30 | – | – | – |
| C[C@@H]1CN(Cc2cc3c(c(C(F)(F)F)c2)CN(c2cccc([C@]4(c5nncn5C)C[C@@H](C)C4)c2)C3=O)CCO1 [Compound 24, 2-(3-((1s,3S)-3-methyl-1-(4-methyl-4H-1,2,4-triazol-3-yl)cyclobutyl)phenyl)-6-(((R)-2-methylmorpholino)methyl)-4-(trifluoromethyl)isoindolin-1-one] | C (C indicates <20 fold) | C (C indicates <20 fold) | C (C indicates <1.5 fold) | C (C indicates <0.70 fold) | C (C indicates <1.5 fold) | C (C indicates <0.70 fold) | 7.00 to 7.70 | – | – | – |
| CC(c1cc2c(c(C(F)(F)F)c1)CN(c1cccc([C@@H](c3nncn3C)C3CCC3)c1)C2=O)N1CCC(F)(F)[C@H](C)C1 (stereo partly drawn) [Compound 14, 2-(3-((S)-cyclobutyl(4-methyl-4H-1,2,4-triazol-3-yl)methyl)phenyl)-6-(1-((R)-4,4-difluoro-3-methylpiperidin-1-yl)ethyl)-4-(trifluoromethyl)isoindolin-1-one] | C (C indicates <20 fold) | C (C indicates <20 fold) | C (C indicates <1.5 fold) | C (C indicates <0.70 fold) | C (C indicates <1.5 fold) | C (C indicates <0.70 fold) | 7.00 to 7.70 | 7.00 to 7.70 | B (B indicates 1.24-1.39 fold) | – |
| C[C@@H]1CN(Cc2cc3c(c(C(F)(F)F)c2)CN(c2cccc([C@]4(c5nncn5C)C[C@@H](CC#N)C4)c2)C3=O)CCC1(F)F [Compound 49, 2-((1S,3s)-3-(3-(6-(((R)-4,4-difluoro-3-methylpiperidin-1-yl)methyl)-1-oxo-4-(trifluoromethyl)isoindolin-2-yl)phenyl)-3-(4-methyl-4H-1,2,4-triazol-3-yl)cyclobutyl)acetonitrile] | A (A indicates >35 fold) | A (A indicates >35 fold) | A (A indicates >2.5 fold) | A (A indicates >1.1 fold) | A (A indicates >2.5 fold) | A (A indicates >1.1 fold) | > 8.30 | – | B (B indicates 1.24-1.39 fold) | B (B indicates 1.24-1.39 fold) |
| C[C@@H]1CN(Cc2cc3c(c(C(F)(F)F)c2)CN(c2cccc([C@@H](c4nncn4C)C4CCC4)c2)C3=O)CCO1 [Compound 15, 2-(3-((S)-cyclobutyl(4-methyl-4H-1,2,4-triazol-3-yl)methyl)phenyl)-6-(((R)-2-methylmorpholino)methyl)-4-(trifluoromethyl)isoindolin-1-one] | C (C indicates <20 fold) | C (C indicates <20 fold) | C (C indicates <1.5 fold) | C (C indicates <0.70 fold) | C (C indicates <1.5 fold) | C (C indicates <0.70 fold) | 7.70 to 8.30 | 7.70 to 8.30 | B (B indicates 1.24-1.39 fold) | B (B indicates 1.24-1.39 fold) |
